Experimental data as given in patent publication US11299478B2, “2-cyanopyrimidin-4-yl carbamate or urea derivative or salt thereof, and pharmaceutical composition including same” (HANLIM PHARMACEUTICAL CO., LTD., priority 2018, dated 2022).

How the values were obtained:
Type in all cases: biochemical
cathepsin L = cathepsin L (Homo sapiens, UniProt P07711); experiment: Inhibitory activity assay against cathepsin L (enzyme assay); conditions: Z-Phe-Arg-AMC 2 μM, enzyme 3 nM, pH 5.5, 30 minutes
Experimental: In order to measure the enzyme activity of cathepsin L, a buffer solution (pH 5.5) consisting of 50 mM MES, 2.5 mM DTT, 2.5 mM EDTA, 0.005% Polysorbate 20, and 10% DMSO was prepared. The substrate, the test material, and the enzyme were mixed in the buffer solution in a predetermined concentration. The Z-Phe-Arg-AMC substrate was used in the final concentration of 2 μM. The test material was used in the final concentrations of 10.0 μM, 3.33 μM, 1.11 μM, 0.370 μM, 0.123 μM, 0.0412 μM, 0.0137 μM, 0.00457 μM, 0.00152 μM, and 0.000508 μM, respectively. The cathepsin L enzyme was used in the final concentration of 3 nM. The final volume of the enzyme reaction solution was 10 μL. After reacting the mixture of substrate, test material, and enzyme for 30 minutes, the enzyme activity was measured with the EnVision (Perkin Elmer) microplate reader at an absorption wavelength of 340 nm and an emission wavelength of 460 nm. IC50 values were determined using 4-parameter logistic curve fit program of GraphPad Prism.

cathepsin B = cathepsin B (Homo sapiens, UniProt P07858); experiment: Inhibitory activity assay against cathepsin B (enzyme assay); conditions: Z-Arg-Arg-AMC 40 μM, enzyme 1 nM, pH 6.0, 90 minutes
Experimental: In order to measure the enzyme activity of cathepsin B, a buffer solution (pH 6.0) consisting of 50 mM MES, 5 mM DTT, 2.5 mM EDTA, 0.005% Polysorbate 20, and 10% DMSO was prepared. The substrate, the test material, and the enzyme were mixed in the buffer solution in a predetermined concentration. The Z-Arg-Arg-AMC substrate was used in the final concentration of 40 μM. The test material was used in the final concentrations of 10.0 μM, 3.33 μM, 1.11 μM, 0.370 μM, 0.123 μM, 0.0412 μM, 0.0137 μM, 0.00457 μM, 0.00152 μM, and 0.000508 μM, respectively. The cathepsin B enzyme was used in the final concentration of 1 nM. The final volume of the enzyme reaction solution was 10 μL. After reacting the mixture of substrate, test material, and enzyme for 90 minutes, the enzyme activity was measured with the EnVision (Perkin Elmer) microplate reader at an absorption wavelength of 340 nm and an emission wavelength of 460 nm. IC50 values were determined using 4-parameter logistic curve fit program of GraphPad Prism.

cathepsin S = cathepsin S (Homo sapiens, UniProt P25774); experiment: Inhibitory activity assay against cathepsin S (enzyme assay); conditions: Z-Phe-Arg-AMC 70 μM, enzyme 3 nM, pH 6.5, 45 minutes
Chain of cathepsin S (P25774 115-331, species assumed): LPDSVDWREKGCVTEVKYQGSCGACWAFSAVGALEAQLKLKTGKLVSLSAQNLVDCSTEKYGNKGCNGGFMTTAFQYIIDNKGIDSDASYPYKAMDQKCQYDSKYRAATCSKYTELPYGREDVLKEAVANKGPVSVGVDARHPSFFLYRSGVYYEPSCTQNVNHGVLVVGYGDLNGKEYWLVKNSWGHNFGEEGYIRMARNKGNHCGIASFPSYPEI
Experimental: In order to measure the enzyme activity of cathepsin S, a buffer solution (pH 6.5) consisting of 50 mM MES, 2.5 mM DTT, 1.0 mM EDTA, 0.001% bovine serum albumin (BSA), and 10% DMSO was prepared. The substrate, the test material, and the enzyme were mixed in the buffer solution in a predetermined concentration. The Z-Phe-Arg-AMC substrate was used in the final concentration of 70 μM. The test material was used in the final concentrations of 10.0 μM, 3.33 μM, 1.11 μM, 0.370 μM, 0.123 μM, 0.0412 μM, 0.0137 μM, 0.00457 μM, 0.00152 μM, and 0.000508 μM, respectively. The cathepsin S enzyme was used in the final concentration of 3 nM. The final volume of the enzyme reaction solution was 10 μL.
After reacting the mixture of substrate, test material, and enzyme for 45 minutes, the enzyme activity was measured with the EnVision (Perkin Elmer) microplate reader at an absorption wavelength of 340 nm and an emission wavelength of 460 nm. IC50 values were determined using 4-parameter logistic curve fit program of GraphPad Prism.

cathepsin K = target: T1, cathepsin K (Homo sapiens, UniProt P43235); experiment: Inhibitory activity assay against cathepsin K (enzyme assay); conditions: Z-Phe-Arg-AMC 10 μM, enzyme 1 nM, pH 5.5, 30 minutes
T1 sequence (P43235 115-329): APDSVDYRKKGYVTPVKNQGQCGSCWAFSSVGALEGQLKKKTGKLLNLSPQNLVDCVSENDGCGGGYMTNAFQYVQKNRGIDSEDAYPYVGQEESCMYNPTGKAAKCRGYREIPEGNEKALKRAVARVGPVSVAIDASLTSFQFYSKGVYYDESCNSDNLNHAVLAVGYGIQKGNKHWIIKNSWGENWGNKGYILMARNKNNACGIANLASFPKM
Procedure, shortened: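 Fluorogenic assay with 1 nM cathepsin K and 10 μM Z-Phe-Arg-AMC in pH 5.5 buffer (50 mM MES, 2 mM DTT, 2.5 mM EDTA, 0.01% Triton X-100, 10% DMSO). Ten compound concentrations, 10.0 to 0.000508 μM; 30 min reaction, ex 355/em 460 nm; IC50 by 4-parameter logistic fit.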

Chain of cathepsin L (P07711 114-333, species assumed): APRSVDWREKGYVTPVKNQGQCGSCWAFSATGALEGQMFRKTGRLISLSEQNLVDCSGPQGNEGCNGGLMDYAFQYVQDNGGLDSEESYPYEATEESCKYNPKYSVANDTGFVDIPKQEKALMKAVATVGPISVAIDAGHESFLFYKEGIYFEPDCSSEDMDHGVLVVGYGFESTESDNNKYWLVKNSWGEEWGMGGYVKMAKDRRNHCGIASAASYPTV

Row | Compound | IC50 (cathepsin L) | IC50 (cathepsin B) | IC50 (cathepsin S) | IC50 (cathepsin K)
1 | N#Cc1nccc(C2(NC(=O)Nc3ccc(-c4ccncc4)cc3)CCCCC2)n1 [Example 119, 1-(1-(2-cyanopyrimidin-4-yl)cyclohexyl)-3-(4-(pyridin-4-yl)phenyl)urea] | 6790 nM | > 10000 nM | > 10000 nM | 9.6 nM
2 | N#Cc1nccc(C2(NC(=O)Nc3cc(C(F)(F)F)cc(C(F)(F)F)c3)CCCCC2)n1 [Example 95, 1-(3,5-bis(trifluoromethyl)phenyl)-3-(1-(2-cyanopyrimidin-4-yl)cyclohexyl)urea] | > 10000 nM | > 10000 nM | > 10000 nM | 18.3 nM
3 | N#Cc1nccc(C2(NC(=O)Nc3ccc(-c4ccc(S(=O)(=O)NC5CC5)cc4)cc3)CCCCC2)n1 [Example 148, 4′-(3-(1-(2-cyanopyrimidin-4-yl)cyclohexyl)ureido)-N-cyclopropyl-[1,1′-biphenyl]-4-sulfonamide] | > 10000 nM | > 10000 nM | 8580 nM | 16.8 nM
4 | CC(C)N1CCN(c2ccc(-c3ccc(NC(=O)NC4(c5ccnc(C#N)n5)CCCCC4)cc3F)cc2)CC1 [Example 166, 1-(1-(2-cyanopyrimidin-4-yl)cyclohexyl)-3-(2-fluoro-4′-(4-isopropylpiperazin-1-yl)-[1,1′-biphenyl]-4-yl)urea] | 3440 nM | 2410 nM | 5940 nM | 0.4 nM
5 | Cc1ccc(C)c(NC(=O)NC2(c3ccnc(C#N)n3)CCCCC2)c1 [Example 87, 1-(1-(2-cyanopyrimidin-4-yl)cyclohexyl)-3-(2,5-dimethylphenyl)urea] | 898 nM | > 10000 nM | 6260 nM | 3.6 nM
6 | Cn1ncc2ccc(-c3cccc(COC(=O)NC4(c5ccnc(C#N)n5)CCCC4)c3)cc21 [Example 36, 3-(1-methyl-1H-indazol-6-yl)benzyl (1-(2-cyanopyrimidin-4-yl)cyclopentyl)carbamate] | > 10000 nM | > 10000 nM | 7350 nM | 31.9 nM
7 | COCCOCc1ccc(-c2ccc(NC(=O)NC3(c4ccnc(C#N)n4)CCCCC3)cc2)cc1 [Example 157, 1-(1-(2-cyanopyrimidin-4-yl)cyclohexyl)-3-(4′-((2-methoxyethoxy)methyl)-[1,1′-biphenyl]-4-yl)urea] | > 10000 nM | > 10000 nM | 4620 nM | 6.4 nM
8 | N#Cc1nccc(C2(NC(=O)OCc3ccccc3Br)CCCCC2)n1 [Example 19, 2-bromobenzyl (1-(2-cyanopyrimidin-4-yl)cyclohexyl)carbamate] | 1060 nM | > 10000 nM | 5850 nM | 18 nM
9 | N#Cc1nccc(C2(NC(=O)Nc3ccccc3O)CCCCC2)n1 [Example 102, 1-(1-(2-cyanopyrimidin-4-yl)cyclohexyl)-3-(2-hydroxyphenyl)urea] | 3440 nM | > 10000 nM | 6240 nM | 63.2 nM
10 | CS(=O)(=O)Nc1ccc(-c2ccc(NC(=O)NC3(c4ccnc(C#N)n4)CCCCC3)cc2C(F)(F)F)cc1 [Example 180, N-(4′-(3-(1-(2-cyanopyrimidin-4-yl)cyclohexyl)ureido)-2′-(trifluoromethyl)-[1,1′-biphenyl]-4-yl)methanesulfonamide] | > 10000 nM | > 10000 nM | > 10000 nM | 10.9 nM
11 | N#Cc1nccc(C2(NC(=O)Nc3ccc(-c4ccc(S(N)(=O)=O)cc4)c(C(F)(F)F)c3)CCCCC2)n1 [Example 179, 4′-(3-(1-(2-cyanopyrimidin-4-yl)cyclohexyl)ureido)-2′-(trifluoromethyl)-[1,1′-biphenyl]-4-sulfonamide] | 7530 nM | > 10000 nM | 2760 nM | 11.5 nM
12 | Cc1cc(C)cc(NC(=O)NC2(c3ccnc(C#N)n3)CCCC2)c1 [Example 63, 1-(1-(2-cyanopyrimidin-4-yl)cyclopentyl)-3-(3,5-dimethylphenyl)urea] | > 10000 nM | > 10000 nM | > 10000 nM | 64.3 nM
13 | N#Cc1nccc(C2(NC(=O)Nc3ccc(F)c(C(F)(F)F)c3)CCCCC2)n1 [Example 96, 1-(1-(2-cyanopyrimidin-4-yl)cyclohexyl)-3-(4-fluoro-3-(trifluoromethyl)phenyl)urea] | 6500 nM | > 10000 nM | > 10000 nM | 10.2 nM
14 | N#Cc1nccc(C2(NC(=O)Nc3ccc(C#CCCC(=O)O)cc3)CCCCC2)n1 [Example 182, 5-(4-(3-(1-(2-cyanopyrimidin-4-yl)cyclohexyl)ureido)phenyl)pent-4-ynoic acid] | > 10000 nM | > 10000 nM | > 10000 nM | 10.5 nM
15 | N#Cc1nccc(C2(NC(=O)Nc3ccc(C#Cc4ccc(CO)cc4)cc3)CCCCC2)n1 [Example 183, 1-(1-(2-cyanopyrimidin-4-yl)cyclohexyl)-3-(4-((4-(hydroxymethyl)phenyl)ethynyl)phenyl)urea] | > 10000 nM | > 10000 nM | > 10000 nM | 22 nM
16 | COCc1ccc(C(F)(F)F)cc1NC(=O)NC1(c2ccnc(C#N)n2)CCCCC1 [Example 107, 1-(1-(2-cyanopyrimidin-4-yl)cyclohexyl)-3-(2-(methoxymethyl)-5-(trifluoromethyl)phenyl)urea] | 1470 nM | > 10000 nM | 4750 nM | 6.8 nM
17 | N#Cc1nccc(C2(NC(=O)OCc3ccc(Br)cc3)CCCCC2)n1 [Example 11, 4-bromobenzyl (1-(2-cyanopyrimidin-4-yl)cyclohexyl)carbamate] | > 10000 nM | > 10000 nM | > 10000 nM | 18.8 nM
18 | N#Cc1nccc(C2(NC(=O)NCc3ccccc3C(F)(F)F)CCCC2)n1 [Example 56, 1-(1-(2-cyanopyrimidin-4-yl)cyclopentyl)-3-(2-(trifluoromethyl)benzyl)urea] | > 10000 nM | > 10000 nM | > 10000 nM | 101 nM
19 | N#Cc1nccc(C2(NC(=O)Nc3ccc(-c4ccc(OCCN)cc4)cc3)CCCCC2)n1 [Example 190, 1-(4′-(2-aminoethoxy)-[1,1′-biphenyl]-4-yl)-3-(1-(2-cyanopyrimidin-4-yl)cyclohexyl)urea] | > 10000 nM | 7870 nM | > 10000 nM | 0.3 nM
20 | N#Cc1nccc(C2(NC(=O)Nc3ccc4nccnc4c3)CCCC2)n1 [Example 77, 1-(1-(2-cyanopyrimidin-4-yl)cyclopentyl)-3-(quinoxalin-6-yl)urea] | > 10000 nM | > 10000 nM | > 10000 nM | 95.1 nM
21 | N#Cc1nccc(C2(NC(=O)Nc3ccc(-c4ccc(C(=O)NCC5CCCO5)cc4)cc3)CCCCC2)n1 (stereo not drawn) [Example 158, 4′-(3-(1-(2-cyanopyrimidin-4-yl)cyclohexyl)ureido)-N-((tetrahydrofuran-2-yl)methyl)-[1,1′-biphenyl]-4-carboxamide] | > 10000 nM | 5650 nM | 9430 nM | 6.6 nM
